According to paper PMC9057582, “HIF inhibitor 32-134D eradicates murine hepatocellular carcinoma in combination with anti-PD1 therapy” (The Journal of Clinical Investigation, 2022):
pIC50: −log10 of the molar value.

How the values were obtained:
[1] = tested on: HIF transcriptional activity; experiment: HIF-dependent luciferase reporter assay (FLuc/RLuc ratio) in Hep3B-c1 cells; format: cell-based; conditions: Homo sapiens, 1% O2, 24 hours, read-out: IC50, inhibition of HIF-dependent reporter gene expression
Description: The NCI CellMiner database contains expression data for over 25,000 mRNAs in 60 human cancer cell lines that have been exposed to more than 20,000 chemical compounds ([49]). We searched CellMiner for a compound that induced changes in gene expression that were highly correlated with those induced by acriflavine, but which was structurally unrelated to acriflavine. Compounds that satisfied the above criteria were identified and subsequently analyzed in Hep3B-c1 cells ([50]), which are stably transfected with HIF-dependent reporter plasmid p2.1, in which firefly luciferase (FLuc) coding sequences are located downstream from a hypoxia-response element (HRE) and a basal SV40 promoter; and control reporter pSVR, in which Renilla luciferase (RLuc) coding sequences are downstream of the basal SV40 promoter only (Figure 1A). The FLuc/RLuc ratio in cells exposed to 1% O2 for 24 hours is a specific measure of HIF-dependent gene expression.
Figure 1 Identification of HIF inhibitors. (A) Hep3B-c1 cells were stably transfected with firefly luciferase (FLuc) reporter p2.1, which contains a hypoxia-response element (HRE), and Renilla luciferase (RLuc) reporter pSVR. (B) Hep3B-c1 cells were incubated with vehicle (Veh; 0.1% DMSO; blue bars) or 10 μM 32-134D (red bars) at 20% O2 (n = 6) or 1% O2 (n = 12) for 24 hours. Cell lysates were assayed for Fluc/Rluc activity (mean ± SEM); *P < 0.05 versus vehicle (χ^2 test). (C) Chemical structures and IC50 values for HIF inhibitors. (D and E) Hep3B cells were exposed to 20% O2 with vehicle, or 1% O2 with vehicle (blue bar), 32-134D (red bars), 33-063 (green bars), or PT2385 (brown bars) for 24 hours and CA9 (D) and EPO (E) mRNAs were quantified by RT-qPCR. […] (F) Hep3B cells were exposed to 20% or 1% O2 in the presence of vehicle or 1% O2 in the presence of 5 μM 32-134D (n = 3 each) for 24 hours. […]
Hep3B-c1 cells ([50]) were seeded on 24-well plates. […] FLuc/RLuc ratios were determined using the Dual Luciferase Reporter Assay System (Supplemental Table 6) and the VICTOR Nivo plate reader (PerkinElmer).

[2] = tested on: HIF-1, HIF-2 and p300 recruitment to HREs; experiment: ChIP-qPCR of HRE occupancy in Hep3B cells; format: cell-based, human; conditions: 16 hours, 5 µM 32-134D or 10 µM PT2385
Method: Coadministration of the proteasome inhibitor MG-132 blocked the effect of 32-134D on HIF-1α protein levels (Figure 1H). […] Taken together, the results presented in Figure 1 and Supplemental Figures 1–3 indicate that 32-134D induces HIF-α subunit degradation, thereby inhibiting activation of HIF-1 and HIF-2 target gene transcription.
Cells were seeded overnight and then exposed to 20% or 1% O2 in the presence of compound or vehicle for 16 hours. Protein was cross-linked to DNA by addition of 37% formaldehyde to culture medium for 10 minutes at 37°C and quenched by addition of 0.1 M glycine. Cells were washed with and collected in 5 mL of cold PBS containing PIs. Cells were pelleted and resuspended in 200 μL of SDS lysis buffer (50 mM Tris-HCl [pH 8.1], 10 mM EDTA, 1% SDS) containing PIs and incubated on ice for 10 minutes. Lysates were sonicated to produce DNA fragments ranging from 200 to 900 bp and centrifuged for 10 minutes at 4°C. Supernatants were collected and diluted 10-fold with dilution buffer (16.7 mM Tris-HCl [pH 8.1], 167 mM NaCl, 1.2 mM EDTA, 0.01% SDS, 1.1% Triton X-100) with PIs, precleared with 20 μL of salmon sperm DNA/protein A agarose slurry, and a 20-μL aliquot was reserved as input control. Antibody (2 μg; see Supplemental Table 6) was added and samples were rotated overnight at 4°C. Immune complexes were precipitated with 50 μL of salmon sperm DNA/protein A agarose slurry. Pelleted beads were washed serially using low-salt wash buffer (20 mM Tris-HCl [pH 8.1], 150 mM NaCl, 2 mM EDTA, 0.1% SDS, 1% Triton X-100); high-salt wash buffer (20 mM Tris-HCl [pH 8.1], 500 mM NaCl, 2 mM EDTA, 0.1% SDS, 1% Triton X-100); LiCl wash buffer (10 mM Tris-HCl [pH 8.1], 0.25 M LiCl, 1% Nonidet P-40, 1% deoxycholate, 1 mM EDTA); and TE buffer (10 mM Tris-HCl [pH 8.1], 1 mM EDTA). Elution buffer (1% SDS, 0.1 M NaHCO3) was added and eluates were heated at 65°C overnight to reverse cross-linking. Eluates were treated with proteinase K for 1 hour at 45°C and DNA was purified by extraction in phenol/chloroform/isoamyl alcohol (25:24:1, v/v/v) and isopropanol precipitation. […]

pIC50 [1]: 5.60
SMILES: Brc1ccc2c(-c3csc(-c4c[nH]c5c(Br)cccc45)n3)c[nH]c2c1 [Compound 32-134D]
hypoxia-induced recruitment of HIFs and p300 to EPO and ANGPTL4 HREs [2]: impaired
hypoxia-induced recruitment of HIFs and p300 to the CA9 HRE [2]: impaired
